Experiment [1] deals with T1, AT1 L112A mutant receptor (Rattus norvegicus, UniProt P25095, L112A).
T1 construct: expressed in transfected cells; host or cells: COS1
T1 sequence (P25095 1-359 L112A): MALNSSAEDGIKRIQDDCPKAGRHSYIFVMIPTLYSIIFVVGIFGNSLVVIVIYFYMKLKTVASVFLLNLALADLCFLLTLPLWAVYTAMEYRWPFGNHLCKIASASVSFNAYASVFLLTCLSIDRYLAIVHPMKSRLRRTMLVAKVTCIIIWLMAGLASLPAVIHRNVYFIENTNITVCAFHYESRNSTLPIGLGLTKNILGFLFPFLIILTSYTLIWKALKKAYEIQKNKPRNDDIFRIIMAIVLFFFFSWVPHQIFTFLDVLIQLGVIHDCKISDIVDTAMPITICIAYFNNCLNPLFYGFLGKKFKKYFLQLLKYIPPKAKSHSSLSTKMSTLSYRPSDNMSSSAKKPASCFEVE
The experiment in a line: competition binding, L112A mutant. The following applies: for Kd ratio relative to WT (in parentheses): L112A / WT; for Kd: L112A, COS1 membranes, read-out: Binding affinity (Kd). On the procedure: The Kd and Bmax values of receptor binding were determined by ^125I-[Sar^1, Ile^8] […] Membranes expressing the WT or mutant AT1 receptors were incubated with 100 pM ^125I-[Sar^1, Ile^8] […] The binding reaction was terminated by filtering the incubation mixture through Whatman GF/C glass filters, and the residues were extensively washed further with binding buffer. The bound ligand fraction was determined from the counts per minute (cpm) remaining on the membrane. Binding kinetics values were determined as previously described.

The target of experiment [2] is T2, wild-type (WT) AT1 receptor (Rattus norvegicus, UniProt P25095).
T2 sequence (P25095 1-359): T1 sequence (P25095 1-359 L112A) with A112L
More on the design: expressed in transfected cells; host or cells: COS1 cells. The following applies: previously reported; cited from earlier work.

Experiment [3] concerns the target T3, AT1 C76A/V116C/C289A mutant receptor (Rattus norvegicus, UniProt P25095, C289A/C76A/V116C).
T3 construct: expressed in transfected cells; host or cells: COS1 cells (membranes)
T3 sequence (P25095 1-359 C76A/V116C/C289A): T1 sequence (P25095 1-359 L112A) with C76A, A112L, V116C, C289A
The experiment in a line: substituted cysteine accessibility mapping (SCAM), C76A/V116C/C289A. Format: binding. More on the design: key: Less and More indicate that the AT1 receptor is less or more accessible to the ligand pocket, respectively; Less and More indicate that the AT1 receptor is less or more accessible to the ligand pocket, respectively; No change. The following applies: 1 µM ARB, […] MTSEA+, COS1 membranes. An excerpt:
(§1) As we reported previously, the percentage (%) inhibition of ^125I-[Sar^1, Ile^8] AngII binding by methanethiosulphonate ethyl-ammonium (MTSEA^+) reagent was approximately 30% on AT1 receptor, since Cys^76 in TM2 was accessible to water within the ligand pocket. In addition, mechanical stretching increased the accessibility of Cys^289 by inducing a change in the conformation of TM7 [22]. To differentiate between single and multiple movements of one or more native cysteines, we created TM3 residues that were substituted with cysteine one at a time from […] to Phe^117 using the C76A/C289A mutant genetic background and evaluated each triple mutant for MTSEA sensitivity.
(§2) Figure 3 Changes in cysteine accessibility in COS1 cells expressing C76A/C289A mutant receptors in which the transmenbrane 3 residues from Ala^106 to Phe^117, except for position 113, were successively replaced by cysteine. 1 µM of ARBs, n=4–9, *p<0.05 vs. no treatment. #p<0.05 vs. C76A/C289A.
The SCAM method has been used to probe relative changes in the conformation of constitutively active AT1 receptor [20]–[22] and other GPCRs, [30] by validating the presence of Cys residues within the ligand pocket. […]

Experiment [4] concerns the target T4, AT1 C76A/F117C/C289A mutant receptor (Rattus norvegicus, UniProt P25095, C289A/C76A/F117C).
T4 construct: expressed in transfected cells; host or cells: COS1 cells (membranes)
T4 sequence (P25095 1-359 C76A/F117C/C289A): T1 sequence (P25095 1-359 L112A) with C76A, A112L, F117C, C289A
Nature of the experiment: substituted cysteine accessibility mapping (SCAM), C76A/F117C/C289A. Format: binding. More on the design: key: Less and More indicate that the AT1 receptor is less or more accessible to the ligand pocket, respectively; Less and More indicate that the AT1 receptor is less or more accessible to the ligand pocket, respectively; No change. The settings on record: 1 µM ARB, […] MTSEA+, COS1 membranes.
Source text: as §1, §2
The SCAM method has been used to probe relative changes in the conformation of constitutively active AT1 receptor [20]–[22] and other GPCRs, [30] by validating the presence of Cys residues within the ligand pocket. We used a highly reactive, sulfhydryl-specific reaction with methanethiosulfonyl ethyl-ammonium (MTSEA^+), which reacts a billion times faster with water-exposed and ionized Cys than with lipid-exposed and un-ionized Cys. In this reaction, a positively charged sulfonylmethylammonium group is added to a water-exposed Cys. Aliquots of cell membranes are incubated with or without ARBs for 20 min in phosphate buffer at room temperature. The membranes are then diluted with same buffer and centrifuged. After washout the cell membranes, the membranes are incubated with 2.5 mM MTSEA^+ at room temperature for 2 min in HEPES buffer (pH7.4). The Membranes are then diluted with same buffer to stop the reaction and centrifuged. One hundred µl aliquots were used to assay for ^125I-[Sar^1,Ile^8]Ang II binding. […]

The structures appear in SMILES notation. Numbering of substitutions follows the chain as printed.

By Kd is commonly meant the constant that tells how readily two partners part at equilibrium. `CCCc1nc(C(C)(C)O)c(C(=O)O)n1Cc1ccc(-c2ccccc2-c2nnn[nH]2)cc1` [Olmesartan, olmesartan, reference compound]: the “Kd ratio relative to WT (in parentheses)” value is on record as 12 fold in experiment [1] and above 10 fold in experiment [1] (listed as olmesartan). Besides, the Kd in experiment [1] was 27 ± 7 nM. Besides, the “Pharmacological behaviour toward IP production” value in experiment [2] is “inverse agonism”. Besides, the “Cysteine accessibility at Val116 compared to ligand (-)” value in experiment [3] is listed as “No change”. In addition, the entries for the “Cysteine accessibility at Phe117 compared to ligand (-)” value in experiment [4] and in experiment [4] (listed as olmesartan) were “More” and “greater accessibility”, respectively.
`CCCc1nc(C(C)(C)O)c(C(N)=O)n1Cc1ccc(-c2ccccc2-c2nnn[nH]2)cc1` [R239470]: in experiment [1], the “Kd ratio relative to WT (in parentheses)” value is given as 54 fold and the Kd came out at 43 ± 12 nM. For the same compound, the “Pharmacological behaviour toward IP production” value in experiment [2] was “neutral antagonist”. For the same compound, the “Cysteine accessibility at Val116 compared to ligand (-)” value in experiment [3] is listed as “No change”. Also, the “Cysteine accessibility at Phe117 compared to ligand (-)” value in experiment [4] was “No change”.
With `CCCc1nc(C(C)(C)O)c(C(N)=O)n1Cc1ccc(-c2cc(Cc3ccc(O)cc3)ccc2-c2nnn[nH]2)cc1` [R794847], in experiment [1], the “Kd ratio relative to WT (in parentheses)” value is 0.6 fold and the Kd is 31 ± 5 nM.

The record behind these values is PMC3375280 (PLoS ONE, 2012).
